In ChEMBL document CHEMBL1201862, “PubChem BioAssay data set” (2004):
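Cells were grown in 96-well plates and exposed to each compound for 48 hours at five concentrations; endpoints were interpolated linearly between bracketing concentrations, or set to the highest concentration if not reached. GI50 is the concentration that inhibits growth by half.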 Active and inactive are the calls of the source. No stated cut-off is given here; in the data, active = GI50 up to about 1.1 µM and inactive = higher.

How the values were obtained:
Test in all cases: inhibition of tumour cell growth, NCI panel, 48 h
BT-549 = test system: BT-549
HT-29 = test system: HT-29
OVCAR-3 = test system: OVCAR-3
U-251 = test system: U-251
SN12C = test system: SN12C
UACC-257 = test system: UACC-257
HCT-116 = test system: HCT-116
NCI-H460 = test system: NCI-H460
SK-MEL-28 = test system: SK-MEL-28
A549 = test system: A549
KM12 = test system: KM12
TK-10 = test system: TK-10
SK-MEL-5 = test system: SK-MEL-5
SNB-19 = test system: SNB-19
ACHN = test system: ACHN
SF-268 = test system: SF-268
IGROV-1 = test system: IGROV-1
Malme-3M = test system: Malme-3M
SK-OV-3 = test system: SK-OV-3
HCC 2998 = test system: HCC 2998
RXF 393 = test system: RXF 393
MDA-MB-231 = test system: MDA-MB-231
NCI-H226 = test system: NCI-H226
T47D = test system: T47D
UACC-62 = test system: UACC-62
HCT-15 = test system: HCT-15
OVCAR-4 = test system: OVCAR-4
Hs-578T = test system: Hs-578T
MDA-N = test system: MDA-N
SNB-75 = test system: SNB-75
OVCAR-8 = test system: OVCAR-8
NCI-H23 = test system: NCI-H23
UO-31 = test system: UO-31
SF-295 = test system: SF-295
NCI-H522 = test system: NCI-H522
K562 = test system: K562
HL-60 = test system: HL-60
DU-145 = test system: DU-145
CAKI-1 = test system: CAKI-1
CCRF-CEM = test system: CCRF-CEM
LOX IMVI = test system: LOX IMVI
SK-MEL-2 = test system: SK-MEL-2
A498 = test system: A498
MCF7 = test system: MCF7
786-0 = test system: 786-0
SR = test system: SR
RPMI-8226 = test system: RPMI-8226
EKVX = test system: EKVX
HOP-62 = test system: HOP-62
OVCAR-5 = test system: OVCAR-5
NCI/ADR-RES = test system: NCI/ADR-RES
HOP-92 = test system: HOP-92
M14 = test system: M14
MDA-MB-435 = test system: MDA-MB-435
COLO 205 = test system: COLO 205
PC-3 = test system: PC-3
SW-620 = test system: SW-620
SF-539 = test system: SF-539
MOLT-4 = test system: MOLT-4

Measured: GI50

NC(CSCc1ccccc1)C(=O)O (centres undefined)
> 100 µM: HCT-15
inactive: BT-549 > 100 µM | HT-29 > 100 µM | OVCAR-3 > 100 µM | U-251 > 100 µM | SN12C > 100 µM | UACC-257 > 100 µM | HCT-116 > 100 µM | NCI-H460 > 100 µM | SK-MEL-28 > 100 µM | A549 > 100 µM | KM12 > 100 µM | TK-10 > 100 µM | SK-MEL-5 > 100 µM | SNB-19 > 100 µM | ACHN > 100 µM | SF-268 > 100 µM | IGROV-1 > 100 µM | Malme-3M > 100 µM | SK-OV-3 > 100 µM | HCC 2998 > 100 µM | RXF 393 > 100 µM | MDA-MB-231 > 100 µM | NCI-H226 > 100 µM | T47D > 100 µM | UACC-62 > 100 µM | OVCAR-4 > 100 µM | Hs-578T > 100 µM | MDA-N > 100 µM | SNB-75 > 100 µM | OVCAR-8 > 100 µM | NCI-H23 > 100 µM | UO-31 > 100 µM | SF-295 > 100 µM | NCI-H522 > 100 µM | K562 > 100 µM | HL-60 > 100 µM | DU-145 > 100 µM | CAKI-1 > 100 µM | CCRF-CEM > 100 µM | LOX IMVI > 100 µM | SK-MEL-2 > 100 µM | A498 > 100 µM | MCF7 > 100 µM | 786-0 > 100 µM | SR > 100 µM | RPMI-8226 > 100 µM | EKVX > 100 µM | HOP-62 > 100 µM | OVCAR-5 > 100 µM | NCI/ADR-RES > 100 µM | HOP-92 > 100 µM | M14 > 100 µM | MDA-MB-435 > 100 µM | COLO 205 > 100 µM | PC-3 > 100 µM | SW-620 > 100 µM

CC12CCC(C1)C(C)(C)C2OC(=O)c1ccccc1N (centres undefined)
15.9 µM: HCT-15
inactive: BT-549 19.1 µM | HT-29 14.9 µM | OVCAR-3 15.2 µM | U-251 17.6 µM | SN12C 17.6 µM | UACC-257 15.4 µM | HCT-116 13.5 µM | NCI-H460 15.7 µM | SK-MEL-28 16.7 µM | A549 14.8 µM | KM12 16.3 µM | TK-10 16.9 µM | SK-MEL-5 17 µM | SF-539 18.6 µM | SNB-19 17.2 µM | ACHN 17.5 µM | SF-268 16.8 µM | IGROV-1 25.8 µM | Malme-3M 13.4 µM | SK-OV-3 16.7 µM | HCC 2998 13.3 µM | RXF 393 12.2 µM | MDA-MB-231 15.9 µM | T47D 14.9 µM | UACC-62 15.5 µM | MOLT-4 6 µM | Hs-578T 15.6 µM | MDA-N 15.5 µM | SNB-75 20.5 µM | OVCAR-8 18.5 µM | NCI-H23 15.7 µM | UO-31 17 µM | SF-295 17.3 µM | NCI-H522 10.1 µM | K562 14.9 µM | HL-60 12.9 µM | DU-145 16.4 µM | CAKI-1 15.2 µM | LOX IMVI 18.2 µM | SK-MEL-2 14.8 µM | A498 15.2 µM | MCF7 16.5 µM | 786-0 16.6 µM | SR 8.24 µM | RPMI-8226 2.9 µM | EKVX 15.6 µM | HOP-62 16.9 µM | OVCAR-5 18.2 µM | NCI/ADR-RES 16.6 µM | HOP-92 11.8 µM | M14 16.6 µM | MDA-MB-435 16.7 µM | COLO 205 15.4 µM | PC-3 14.3 µM | SW-620 15.5 µM
active: CCRF-CEM 0.678 µM
